According to ChEMBL document CHEMBL4680365, “Novel Oxopyrido[1,2-a]pyrimidine Compounds for Treating Bacterial Infection” (ACS Med Chem Lett, 2021):

What was measured:
Escherichia coli = experiment: Antibacterial activity against Escherichia coli BW25113 assessed as reduction in bacterial growth measured every 20 mins for 16 hrs by serial broth dilution method; format: functional, organism-based
Klebsiella pneumoniae = experiment: Antibacterial activity against Klebsiella pneumoniae ATCC 10031 assessed as reduction in bacterial growth measured every 20 mins for 16 hrs by serial broth dilution method; format: functional, organism-based

Row | Structure (SMILES) | IC50 (Escherichia coli) | IC50 (Klebsiella pneumoniae)
1 | CNc1c(F)cc(F)c2c1[nH]c1ncc(-c3ccc4ncc(C(=O)O)c(=O)n4c3)c(N(C)C)c12 | 0.497 µM | < 0.098 µM
2 | CNc1cc(F)c(F)c2c1[nH]c1ncc(-c3cc(CN4CCOCC4)c4ncc(C(=O)O)c(=O)n4c3)c(N(C)C)c12 | 0.523 µM | < 0.098 µM
3 | CNc1cc(F)c(F)c2c1[nH]c1ncc(-c3cc(C)c4ncc(C(=O)O)c(=O)n4c3)c(N(C)C)c12 | 0.262 µM | < 0.098 µM
4 | CNc1c(F)c(F)cc2c1[nH]c1ncc(-c3ccc4ncc(C(=O)O)c(=O)n4c3)c(N(C)C)c12 | 0.442 µM | < 0.098 µM
5 | CNc1cc(F)c(F)c2c1[nH]c1ncc(-c3cc(CN(C)C)c4ncc(C(=O)O)c(=O)n4c3)c(N3CCCC3)c12 | 0.663 µM | < 0.098 µM
6 | CNc1cc(F)c(Cl)c2c1[nH]c1ncc(-c3ccc4ncc(C(=O)O)c(=O)n4c3)c(N(C)C)c12 | 0.458 µM | < 0.098 µM
